24 molecules from patent publication US8969394B2, “Thiophenecarboxamide derivatives as EP4 receptor ligands” (Merck Frosst Canada Ltd., priority 2006, dated 2015) can be followed below.

Each structure is given as a SMILES string.

Chain of EP4 receptor (P35408 whole entry): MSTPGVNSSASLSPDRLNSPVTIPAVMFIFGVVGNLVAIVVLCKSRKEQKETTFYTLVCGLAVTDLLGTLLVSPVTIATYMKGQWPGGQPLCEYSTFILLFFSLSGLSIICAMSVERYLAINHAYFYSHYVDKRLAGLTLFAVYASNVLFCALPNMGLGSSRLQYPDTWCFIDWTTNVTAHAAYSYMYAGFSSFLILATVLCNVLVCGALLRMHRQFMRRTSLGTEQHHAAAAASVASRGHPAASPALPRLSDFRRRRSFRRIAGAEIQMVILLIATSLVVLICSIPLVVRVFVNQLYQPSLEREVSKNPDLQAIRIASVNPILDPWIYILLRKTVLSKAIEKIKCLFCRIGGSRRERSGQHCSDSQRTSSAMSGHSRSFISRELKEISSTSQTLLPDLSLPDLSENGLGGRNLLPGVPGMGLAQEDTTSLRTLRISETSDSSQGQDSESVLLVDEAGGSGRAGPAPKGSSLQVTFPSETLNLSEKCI

The test concerns the target EP4 receptor (Homo sapiens (Human), UniProt P35408). The test can be described thus: Prostanoid receptor binding assay, hEP4 (membranes of transfected HEK 293(ebna) cells). Conditions: radioligand binding, HEK 293(ebna) membranes, 10 mM MES/KOH pH 6.0. How it is done: Prostanoid receptor cDNAs corresponding to full length coding sequences are subcloned into the appropriate sites of mammalian expression vectors and transfected into HEK 293(ebna) cells. HEK 293(ebna) cells expressing the individual cDNAs are grown under selection and individual colonies are isolated after 2-3 weeks of growth using the cloning ring method and subsequently expanded into clonal cell lines.
Transfected HEK 293(ebna) cells are maintained in culture, harvested and membranes are prepared by differential centrifugation, following lysis of the cells in the presence of protease inhibitors, for use in receptor binding assays. Prostanoid receptor binding assays (for DP1, DP2 (CRTH2), EP1, EP2, EP3-III, EP4, FP, IP, and TP) are performed in 10 mM MES/KOH (pH 6.0) (EPs, FP and TP) or 10 mM HEPES/KOH (pH 7.4) (DPs and IP), containing 1 mM EDTA, 2.5-30 mM divalent cation and the appropriate radioligand. Synthetic compounds are added in dimethylsulfoxide which is kept constant at 1% (v/v) in all incubations. The reaction is initiated by addition of membrane protein. Non-specific binding is determined in the presence of 10 μM of the corresponding non-radioactive prostanoid. Incubations are conducted for 60-90 min at room temperature or 30° C. and terminated by rapid filtration. Specific binding is calculated by subtracting non specific binding from total binding. The residual specific binding at each ligand concentration is calculated and expressed as a function of ligand concentration in order to construct sigmoidal concentration-response curves. The binding affinity of the compounds is determined by calculating the equilibrium inhibition constant (Ki) from the equation Ki=InPt/1+[radioligand]/Kd where Kd is the equilibrium dissociation constant for the radioligand:receptor interaction and InPt is the inflection point of the dose-response curves.
A word on the Ki: it is the equilibrium dissociation constant of an inhibitor or competing ligand from its target. On to `CC(NC(=O)c1sc(Cl)cc1Cc1cccc(Cl)c1)c1ccc(C(=O)O)cc1` (stereo not drawn) [Example 1, 4-[1-({[5-chloro-3-(3-chlorobenzyl)-2-thienyl]carbonyl}amino)ethyl]-benzoic acid], for which the Ki turned out to be 5.2 ± 1.1 nM.

As to `CC(NC(=O)c1sc(Cl)cc1Cc1cccc(Cl)c1)c1ccc(-c2nn[nH]n2)cc1` (stereo not drawn) [Example 2, 5-chloro-3-(3-chlorobenzyl)-N-{1-[4-(1H-tetrazol-5-yl)phenyl]ethyl}-thiophene-2-carboxamide], the inhibitory constant (Ki) turned out to be 2.6 ± 0.6 nM. The value for `C[C@H](NC(=O)c1cscc1Cc1cccc(Cl)c1)c1ccc(C(=O)O)cc1` [Example 3, 4-[(1S)-1-({[4-(3-chlorobenzyl)-3-thienyl]carbonyl}amino)ethyl]benzoic acid] was 7.9 ± 0.6 nM; that for `C[C@H](NC(=O)c1csc(Br)c1Cc1cccc(Cl)c1)c1ccc(C(=O)O)cc1` [Example 4, 4-[(1S)-1-({[5-bromo-4-(3-chlorobenzyl)-3-thienyl]carbonyl}amino)ethyl]benzoic acid] was 0.71 ± 0.01 nM. The result for `C[C@H](NC(=O)c1c(Br)sc(Br)c1Cc1cccc(Cl)c1)c1ccc(C(=O)O)cc1` [Example 5, 4-[(1S)-1-({[2,5-dibromo-4-(3-chlorobenzyl)-3-thienyl]carbonyl}amino)ethyl]benzoic acid] reads 0.47 ± 0.01 nM. In turn, `COC(=O)c1ccc([C@H](C)NC(=O)c2c(Cl)sc(Cl)c2Cc2cccc(Cl)c2)cc1` [Example 6, methyl 4-[(1S)-1-({[2,5-dichloro-4-(3-chlorobenzyl)-3-thienyl]carbonyl}amino)ethyl]benzoate] registered a Ki of 124 nM.

Turning to `C[C@H](NC(=O)c1c(Cl)sc(Cl)c1Cc1cccc(Cl)c1)c1ccc(C(=O)O)cc1` [Example 7, 4-[(1S)-1-({[2,5-dichloro-4-(3-chlorobenzyl)-3-thienyl]carbonyl}amino)ethyl]benzoic acid], the Ki amounted to 1.3 ± 0.6 nM. The value for `C[C@H](NC(=O)c1c(Cl)sc(Cl)c1C(OC1CCCCO1)c1cccc(Cl)c1)c1ccc(C(=O)O)cc1` (stereo partly drawn) [Example 8] was 51 nM; that for `C[C@H](NC(=O)c1c(Cl)sc(Cl)c1C(O)c1cccc(Cl)c1)c1ccc(C(=O)O)cc1` (stereo partly drawn) [Example 9, 4-{(1S)-1-[({2,5-dichloro-4-[(3-chlorophenyl)(hydroxy)methyl]-3-thienyl}carbonyl)amino]ethyl}benzoic acid] was 1.8 nM.

With `C[C@H](NC(=O)c1c(Cl)sc(Cl)c1C(=O)c1cccc(Cl)c1)c1ccc(C(=O)O)cc1` [Example 10, 4-[(1S)-1-({[2,5-dichloro-4-(3-chlorobenzoyl)-3-thienyl]carbonyl}amino)ethyl]benzoic acid], the Ki worked out at 7.4 ± 1.3 nM. As for `Cc1sc(C)c(C(=O)N[C@@H](C)c2ccc(C(=O)O)cc2)c1Cc1ccc(C(F)(F)F)cc1` [Example 12, 4-{(1S)-1-[({2,5-dimethyl-4-[4-(trifluoromethyl)benzyl]-3-thienyl}carbonyl)amino]ethyl}benzoic acid], the affinity, expressed as Ki, was 1.4 ± 0.4 nM. The result for `Cc1sc(C)c(C(=O)NC2(c3ccc(-c4nn[nH]n4)cc3)CC2)c1Cc1ccc(C(F)(F)F)cc1` [Example 14, 2,5-dimethyl-N-{1-[4-(2H-tetrazol-5-yl)phenyl]cyclopropyl}-4-[4-(trifluoromethyl)benzyl]thiophene-3-carboxamide] reads 0.6 ± 0.1 nM; that for `Cc1sc(C)c(C(=O)NC2(c3ccc(C(=O)O)cc3)CC2)c1Cc1ccc(C(F)(F)F)cc1` [Example 16, 4-{1-[({2,5-dimethyl-4-[4-(trifluoromethyl)benzyl]-3-thienyl}carbonyl)amino]cyclopropyl}benzoic acid], 0.5 ± 0.1 nM.

The molecule `Cc1sc(C)c(C(=O)N[C@@H](C)c2ccc(C(=O)NS(C)(=O)=O)cc2)c1Cc1ccc(C(F)(F)F)cc1` [Example 18, 2,5-dimethyl-N-[(1S)-1-(4-{[(methylsulfonyl)amino]carbonyl}phenyl)ethyl]-4-[4-(trifluoromethyl)benzyl]thiophene-3-carboxamide] came in with an inhibition constant (Ki) of 308 nM. In turn, `Cc1sc(C)c(C(=O)N[C@@H](C)c2ccc(C(=O)NS(=O)(=O)c3ccccc3)cc2)c1Cc1ccc(C(F)(F)F)cc1` [Example 19, 2,5-dimethyl-N-[(1S)-1-(4-{[(phenylsulfonyl)amino]carbonyl}phenyl)ethyl]-4-[4-(trifluoromethyl)benzyl]thiophene-3-carboxamide] displayed a Ki of 133 nM.

As for `C[C@@H](NC(=O)c1c(Cl)sc(Cl)c1Cc1cccc(Cl)c1)c1ccc(C(=O)O)cc1` [Example 20, 4-[(1R)-1-({[2,5-dichloro-4-(3-chlorobenzyl)-3-thienyl]carbonyl}amino)-ethyl]benzoic acid], the inhibition constant (Ki) was 0.9 ± 0.2 nM.

For the molecule `C[C@H](NC(=O)c1c(Cl)sc(Cl)c1Cc1cccc(C(F)(F)F)c1)c1ccc(C(=O)O)cc1` [Example 21, 4-{(1S)-1-[({2,5-dichloro-4-[3-(trifluoromethyl)benzyl]-3-thienyl}carbonyl)-amino]ethyl}benzoic acid], the inhibition constant (Ki) was determined as 0.8 ± 0.2 nM. The value for `O=C(O)c1ccc(CNC(=O)c2c(Cl)sc(Cl)c2Cc2cccc(Cl)c2)cc1` [Example 22, 4-[({[2,5-dichloro-4-(3-chlorobenzyl)-3-thienyl]carbonyl}amino)-methyl]benzoic acid] was 0.9 ± 0.1 nM; that for `Cc1sc(C)c(C(=O)N[C@@H](C)c2ccc(C(=O)O)cc2)c1Cc1cccc(Cl)c1` [Example 23, 4-[(1S)-1-({[4-(3-chlorobenzyl)-2,5-dimethyl-3-thienyl]carbonyl}amino)-ethyl]benzoic acid] was 3.1 ± 0.4 nM. The result for `Cc1sc(C)c(C(=O)N[C@@H](C)c2ccc(C(=O)O)cc2)c1Cc1cccc(C(F)(F)F)c1` [Example 24, 4-{(1S)-1-[({2,5-dimethyl-4-[3-(trifluoromethyl)benzyl]-3-thienyl}carbonyl)-amino]ethyl}benzoic acid] reads 2.4 ± 0.2 nM. The result for `Cc1sc(C)c(C(=O)NCc2ccc(C(=O)O)c(Cl)c2)c1Cc1cccc(Cl)c1` [Example 25, 2-chloro-4-[({[4-(3-chlorobenzyl)-2,5-dimethyl-3-thienyl]carbonyl}amino)-methyl]benzoic acid] reads 30 nM; that for `Cc1sc(C)c(C(=O)NC2(c3ccc(-c4nn[nH]n4)cc3)CC2)c1Cc1cccc(C(F)(F)F)c1` [Example 26, 2,5-dimethyl-N-{1-[4-(2H-tetrazol-5-yl)phenyl]cyclopropyl}-4-[3-(trifluoromethyl)benzyl]thiophene-3-carboxamide], 0.7 ± 0.2 nM. Molecule `Cc1sc(C)c(C(=O)NC2(c3ccc(C(=O)O)cc3)CC2)c1Cc1cccc(C(F)(F)F)c1` [Example 28, 4-{1-[({2,5-dimethyl-4-[3-(trifluoromethyl)benzyl]-3-thienyl}carbonyl)-amino]cyclopropyl}benzoic acid] came in with a Ki of 0.8 ± 0.2 nM. Turning to `Cc1sc(C)c(C(=O)N[C@@H](C)c2ccc(C(=O)O)cc2)c1Cc1ccc(Cl)cc1` [Example 30, 4-[(1S)-1-({[4-(4-chlorobenzyl)-2,5-dimethyl-3-thienyl]carbonyl}amino)-ethyl]benzoic acid], affinity was put at a Ki of 3.4 ± 0.2 nM.
